Measured values taken from article PMC9916778 (International Journal of Molecular Sciences, 2023).
Like-named read-outs stand apart in the source and are kept apart here.

What was measured:
A2780 cells [1] = test: Cell cycle analysis (flow cytometry); format: cell-based, human; details: A2780, half-cytotoxic concentration, 24 h
Description: After 24 h, the cells were treated with a 4 µM solution of complex (1) and cultivated for the next 24 h. Then, the cells were washed once with PBS (0.1 M, pH 7.4), and cell cycle analysis was performed using a BD Cycletest^TM Plus DNA kit (Becton Dickinson, Franklin Lakes, NJ, USA) according to the manufacturer’s protocol. The data were acquired using a BD FACSVerse flow cytometer (Becton Dickinson, USA) in three independent experiments, each performed in duplicate, while at least 5 × 10^3 events were recorded for each sample.

A2780 cells [2] = test: Induction of apoptosis, Annexin V-FITC/PI staining; format: cell-based, human; details: A2780, half-cytotoxic concentration, 24 h
Description: (§1) The induction of cell death by complex (1) was studied by two methods in the A2780 cell line. Firstly, the induction of apoptosis was tested using an Annexin V-FITC/PI commercial kit (V13242, Thermo Fisher Scientific, USA). Second, caspase 3/7 activation was monitored using the CellEvent™ Caspase-3/7 Green Flow Cytometry Assay Kit (C10427, Thermo Fisher Scientific, USA). Both assays were performed according to the manufacturers’ protocols with one modification in the caspase induction assay: the use of CellEvent^TM Caspase-3/7 Green Detection Reagent was only for the detection of caspase 3/7 activation. The general procedure was as follows: 5 × 10^4 cells per well were seeded in a 24-well cell culture plate, and after 24 h, the cells were treated with 4 µM solution of complex (1) and cultivated for next 24 h. […] The trypsin was blocked by adding the cell culture medium to a final volume of 500 µL, and the resulting cell suspensions were divided into two separate 250 µL aliquots. The first set of aliquots was used to evaluate the Annexin V-FITC/PI assay, whilst the second one was used for the caspase 3/7 activation assay. Both assays were performed using a BD FACSVerse flow cytometer (Becton Dickinson, USA) in three independent experiments, each performed in duplicate.

[3] = tested on: A2780 ovarian carcinoma cells; test: In vitro cytotoxicity (MTT assay), A2780; format: cell-based, human
Description: (§2) The reference normal cell line of human fetal fibroblasts (MRC-5) was obtained from the same commercial source and maintained according to the producer’s instructions. The half-maximal inhibitory concentrations (IC50) were calculated from dose–response curves by means of the GraphPad Prism 6 software (GraphPad Software, San Diego, CA, USA).

[4] = tested on: MRC5 human fetal fibroblasts; test: In vitro cytotoxicity (MTT assay), normal MRC-5 fibroblasts; format: cell-based; details: ± standard deviation, triplicate, read-out: IC50, MRC5 (healthy cells)
Description: as §2, with “The testing was performed on the ovarian carcinoma (A2780), Cisplatin-resistant ovarian carcinoma (A2780R), prostate adenocarcinoma (PC-3), prostate carcinoma (22Rv1), and leukemia monocytic (THP-1) and intestinal colon adenocarcinoma (LS180) human cell lines that were obtained from the ATCC collection of cell lines and cultivated according to the producer’s instructions. The reference” for “The reference”

caspases 3/7 = test: Caspase 3/7 activation (flow cytometry); format: cell-based, human; details: A2780, half-cytotoxic concentration, 24 h
Description: as §1

[5] = tested on: THP-1 leukemia monocytic cells; test: In vitro cytotoxicity (MTT assay), THP-1; format: cell-based, human; details: ± standard deviation, triplicate
Description: as §2, with “The testing was performed on the ovarian carcinoma (A2780), Cisplatin-resistant ovarian carcinoma (A2780R), prostate adenocarcinoma (PC-3), prostate carcinoma (22Rv1), and leukemia monocytic (THP-1) and intestinal colon adenocarcinoma (LS180) human cell lines that were obtained from the ATCC collection of cell lines and cultivated according to the producer’s instructions. The reference” for “The reference”

[6] = tested on: LS180 intestinal colon adenocarcinoma cells; test: In vitro cytotoxicity (MTT assay), LS180; format: cell-based, human; details: ± standard deviation, triplicate
Description: as §2, with “The testing was performed on the ovarian carcinoma (A2780), Cisplatin-resistant ovarian carcinoma (A2780R), prostate adenocarcinoma (PC-3), prostate carcinoma (22Rv1), and leukemia monocytic (THP-1) and intestinal colon adenocarcinoma (LS180) human cell lines that were obtained from the ATCC collection of cell lines and cultivated according to the producer’s instructions. The reference” for “The reference”

A2780 cells [7] = test: Induction of autophagy (CYTO-ID kit); format: cell-based, human; details: A2780, half-cytotoxic concentration, 24 h
Description: The induction of autophagy by complex (1) was studied using a CYTO-ID® Autophagy Detection Kit 2.0 (ENZO, New York, NY, USA) according to the manufacturer’s protocol. Briefly, the A2780 cells were seeded in a 24-well cell culture plate at 5 × 10^4 cells per well and cultivated for 24 h. The next day, the cells were treated with complex (1) at 4 µM. […] Then, the cells were stained with CYTO-ID® Green stain solution and incubated for 30 min in the dark. After the final wash with PBS, the cell suspensions were analyzed using the BD FACSVerse flow cytometer (Becton Dickinson, USA) in three separate experiments, while at least 10^4 events were recorded for each sample prepared in duplicates. The cells incubated with the mixture of chloroquine (10 µM) and rapamycin (0.5 µM) for 18 h were used as a positive control.

PPARγ = test: Immunocytochemical analysis of PPARγ expression and localisation; format: cell-based, human; details: 100 nM, 1 h pre-treatment, LPS-stimulated THP1-Blue NF-κB macrophages
Description: THP1-Blue™ NF-κB cells were seeded onto a µ-Slide 8 Well (Ibidi; Gräfelfing, Germany) and differentiated into macrophages by […] (PMA) at the final concentration of 50 ng/mL, as was described previously.
Differentiated macrophages were washed by PBS and covered by fresh serum-free medium for 2 h. […] One hour later, the cells were challenged by LPS for 24 h. Then, the cells were washed by PBS and fixed by 4% paraformaldehyde dissolved in PBS for 10 min. Cell permeabilization and blocking of free binding sites were performed by 0.1% (v/v) Triton X100 and 5% (w/v) bovine serum albumin (BSA) dissolved in PBS for 1 h at room temperature. After that, cells were washed by PBS with 0.1% (v/v) Tween 20 and covered by fresh PBS with 5% BSA and 0.1% Tween 20 containing Alexa Fluor® 546-labelled anti-PPARγ antibody diluted 1:100 (catalogue number sc-7273; Santa Cruz Biotechnology; Dallas, TX, USA) for a further 24 h. Then, cells were washed by PBS with 0.1% Tween 20 and incubated with Hoechst stain diluted 1:2000 for 10 min. The remaining stain was washed out by PBS and covered by fresh PBS for further microscope analysis. The confocal microscope Leica TCS SP8 MP (Leica Microsystems, Mannheim, Germany) was used for obtaining the images for the immunocytochemical analysis of PPARγ expression and localization.

[8] = tested on: 22Rv1 prostate carcinoma cells; test: In vitro cytotoxicity (MTT assay), 22Rv1; format: cell-based, human; details: ± standard deviation, triplicate
Description: as §2, with “The testing was performed on the ovarian carcinoma (A2780), Cisplatin-resistant ovarian carcinoma (A2780R), prostate adenocarcinoma (PC-3), prostate carcinoma (22Rv1), and leukemia monocytic (THP-1) and intestinal colon adenocarcinoma (LS180) human cell lines that were obtained from the ATCC collection of cell lines and cultivated according to the producer’s instructions. The reference” for “The reference”

[9] = tested on: PC-3 prostate adenocarcinoma cells; test: In vitro cytotoxicity (MTT assay), PC-3; format: cell-based, human; details: ± standard deviation, triplicate
Description: as §2, with “The testing was performed on the ovarian carcinoma (A2780), Cisplatin-resistant ovarian carcinoma (A2780R), prostate adenocarcinoma (PC-3), prostate carcinoma (22Rv1), and leukemia monocytic (THP-1) and intestinal colon adenocarcinoma (LS180) human cell lines that were obtained from the ATCC collection of cell lines and cultivated according to the producer’s instructions. The reference” for “The reference”

[10] = tested on: human cancer cell lines (A2780, A2780R, PC-3, 22Rv1, and THP-1); test: In vitro cytotoxicity, summary statements over the panel of cell lines; format: cell-based
Description: as §2, with “The testing was performed on the ovarian carcinoma (A2780), Cisplatin-resistant ovarian carcinoma (A2780R), prostate adenocarcinoma (PC-3), prostate carcinoma (22Rv1), and leukemia monocytic (THP-1) and intestinal colon adenocarcinoma (LS180) human cell lines that were obtained from the ATCC collection of cell lines and cultivated according to the producer’s instructions. The reference” for “The reference”

NF-κB = NF-κB activity in LPS-challenged cells (SEAP reporter); format: cell-based, human; details: 100 nM, 1 h pre-treatment, LPS 24 h, THP1-Blue NF-κB monocytes
Description: The effect of the tested compounds to influence the function of transcription factor NF-κB was determined on lipopolysaccharide (LPS)-challenged THP1-Blue™ NF-κB cells as we described previously. […] After 24 h incubation, the activity of NF-κB was determined as the amount of secreted embryonic alkaline phosphatase using Quanti-Blue™ medium (Invivogen).

[11] = tested on: A2780R Cisplatin-resistant ovarian carcinoma cells; test: In vitro cytotoxicity (MTT assay), A2780R; format: cell-based, human; details: ± standard deviation, triplicate
Description: as §2, with “The testing was performed on the ovarian carcinoma (A2780), Cisplatin-resistant ovarian carcinoma (A2780R), prostate adenocarcinoma (PC-3), prostate carcinoma (22Rv1), and leukemia monocytic (THP-1) and intestinal colon adenocarcinoma (LS180) human cell lines that were obtained from the ATCC collection of cell lines and cultivated according to the producer’s instructions. The reference” for “The reference”

A2780 cells [12] = test: Mitochondrial membrane potential analysis (MITO-ID); format: cell-based, human; details: A2780, half-cytotoxic concentration, 24 h
Description: The A2780 cells were seeded in 24-well cell culture plates at 5 × 10^4 cells/well and cultivated for 24 h. The next day, the complex (1) was added to a final concentration of 4 µM, and the cells were incubated for another 24 h. […] The cells were then isolated by centrifugation and resuspended in a staining solution prepared according to the manufacturer’s protocol from a MITO-ID® Membrane Potential Detection kit (Enzo Life Sciences, USA). Finally, the cells were analyzed using a BD FACSVerse flow cytometer (Becton Dickinson, USA). The control was carried out by treatment with 2 µM carbonyl cyanide 3-chlorophenylhydrazone (CCCP). Three independent experiments were conducted, each in duplicate.

A2780 cells [13] = details: 23 nM concentration ref 25; cited from earlier work
Caco-2 cells = details: read-out: IC50, antiproliferative effect, Caco-2 cells; cited from earlier work

Molecule: c1ccc([PH]([Au][n]2cnc3c(NCc4ccco4)ncnc32)(c2ccccc2)c2ccccc2)cc1 [[Au(kin)(PPh3)] (1), [Au(kin)(PPh3)]]
- Population of cells in G2/M phase (A2780 cells [1]): 24.8 ± 1.0%
- Population of cells in S phase (A2780 cells [1]): 22.6 ± 1.6%
- Number of cells in the G0/G1 phase (A2780 cells [1]; vs untreated control): significant decrease in the number of cells in the G0/G1 phase
- Cells in early stage apoptosis (Annexin V+/PI-) (A2780 cells [2]): around 10%
- Cells in late stage apoptosis (Annexin V+/PI+) (A2780 cells [2]): around 30%
- IC50 ([3]; 24 h incubation, read-out: Time-dependent in vitro cytotoxicity (IC50), A2780, 24 h): 2900 ± 700 nM
- IC50 ([3]; 72 h incubation, read-out: Time-dependent in vitro cytotoxicity (IC50), A2780, 72 h): 3000 ± 600 nM
- IC50 ([3]; MTT, 24 h incubation, ± standard deviation, triplicate, read-out: IC50, A2780): 2900 ± 700 nM
- IC50 ([3]; read-out: IC50, A2780, after 48 h and 72 h incubation, 48 h and 72 h incubation, insignificant changes): ~3000 nM
- IC50 ([3]; read-out: Time-dependent in vitro cytotoxicity (IC50), A2780, 48 h, 48 h incubation): 3000 ± 300 nM
- IC50 [4]: > 10000 nM
- Cells with active executioner caspases 3/7 (caspases 3/7): around 40%
- IC50 [5]: 1100 ± 200 nM
- IC50 [6]: > 10000 nM
- Induction of autophagy (A2780 cells [7]): not shown to cause metabolic stress strong enough to induce the autophagy
- Effect on the amount of PPARγ (PPARγ): slightly increase the amount of PPARγ
- IC50 [8]: 3700 ± 500 nM
- IC50 [9]: 4800 ± 1300 nM
- IC50 ([10]; A2780, A2780R, PC-3, 22Rv1, and THP-1, read-out: IC50 against human cancer cell lines (summary)): 1000 to 5000 nM
- selectivity index (SI) ([10]; IC50 for normal cell line/IC50 for cancerous cell line): higher than 2
- Effect on LPS-stimulated NF-κB activity (NF-κB): did not show any effect on the activity of NF-κB
- IC50 [11]: 5000 ± 1500 nM
- Damage to mitochondrial membranes (A2780 cells [12]): clearly the least effective

Molecule: CCN(CC)C(=S)[S][Au][PH](c1ccccc1-c1ccccc1)(C(C)(C)C)C(C)(C)C [diethyldithiocarbamato-[(1,1′-biphenyl-2-yl)di-tert-butylphosphine] gold(I) complex]
- Cells in G2/M arrest, A2780 (A2780 cells [13]): around 30%

Molecule: [Au(tpy)Cl(2-TU)]
- IC50 (Caco-2 cells): 510 ± 280 nM
